# Test results as given in patent publication US20210000814A1, “RIMEGEPANT FOR CGRP RELATED DISORDERS” (Biohaven Pharmaceutical Holding Company Ltd., priority 2018, published 2021).
# Assays:
# Assay type in all cases: in vivo, human
# [1] = system: subjects with Acute Migraines; assay: BHV3000-303 Phase 3 trial, rimegepant ODT, acute treatment of migraine: efficacy; settings: Study 303; single dose
# Experimental: Clinical Trial—BHV3000-303: Phase 3: Double-Blind, Randomized, Placebo-Controlled, Safety and Efficacy Trial of BHV-3000 (Rimegepant) Orally Discintegrating Tablet (ODT) for the Acute Treatment of Migraine (ClinicalTrials.gov Identifier: NCT03461757) • A phase 3 clinical study was conducted with 1812 participants, as follows. The purpose of this study is to compare the efficacy of BHV-3000 (rimegepant ODT) versus placebo in subjects with Acute Migraines. […] Pain freedom of rimegepant compared with placebo in the acute treatment of migraine will be measured using the number of evaluable subjects that report no pain at 2 hours post-dose. [Time Frame: Two hours post dose] will be measured on a 4 point Likert scale (0=none, 1=mild, 2=moderate, 3=severe) 2. Freedom from the most bothersome symptom (MBS) of rimegepant compared with placebo will be measured using the number of evaluable subjects that report the absence of their MBS at 2 hours post-dose. […] The MBS (nausea, phonophobia or photophobia) will measured using a binary scale (0=absent, 1=present). […] To measure rimegepant compared to placebo on the probability of requiring rescue medication will be assessed using the number of subjects that take rescue medication within […] administration of study medication (BHV3000 or placebo). […]
# [2] = BHV3000-302 Phase 3 trial: safety and tolerability; settings: Study 302
# Experimental: (§1) In a double-blind, randomized, placebo-controlled, multicenter study (Study 302, NCT03237845) adults ≥8 years of age with at least a 1-year history of ICHD 3-beta migraine were eligible to participate. Following a 3- to 28-day screening period, subjects were randomized to receive rimegepant 75 mg or matching placebo and instructed to treat a single migraine attack with 1 dose of the blinded study drug (rimegepant or placebo) when headache pain reached moderate or severe intensity. The coprimary endpoints were pain freedom at 2 hours postdose and freedom from the most bothersome symptom (MBS) at 2 hours postdose. Safety assessments included adverse events (AEs), ECGs, vital signs, physical measurements, and routine laboratory tests, including assessment of liver function. Unless stated otherwise, values presented are mean±SD.
# [3] = BHV3000-301 Phase 3 trial: safety and tolerability; settings: Study 301
# Experimental: as §1, with “Methods • In” for “In”, “301, NCT03235479)” for “302, NCT03237845)”, “≥[…]” for “≥8”
# [4] = Pooled safety data (AEs, liver function tests) of Studies 301, 302 and 303
# [5] = pooled 301, 302, 303, n = 1,771
compound,measurement,setting,value
"N[C@@H]1c2cccnc2[C@H](OC(=O)N2CCC(n3c(=O)[nH]c4ncccc43)CC2)CC[C@H]1c1cccc(F)c1F [Rimegepant, [(55,65,9R)-5-amino-6-(2,3-difluorophenyl)-6,7,8,9-tetrahydro-5H-cyclohepta[b]pyridin-9-yl]4-(2-oxo-3H-imidazo[4,5-b]pyridin-1-yl)piperidine-1-carboxylate]","clinical benefit through 48 hours on pain relief, pain freedom, MBS, functional disability versus placebo",[1],Lasting clinical benefit
same,bilirubin elevations greater than 2 times ULN,[2],no bilirubin elevations
same,transaminase level greater than 3 times ULN,[2],No subject
same,safety and tolerability profile,[2]; 75 mg oral tablet,favorable tolerability and safety
same,Serious AEs (SAEs),[2]; back pain,1 subject
same,SAE related to the study drug,[3],No SAE
same,bilirubin elevations >2 times ULN,[3],No bilirubin elevations
same,transaminase level >5 times ULN,[3],no subject
same,safety and tolerability profile,[3]; 75 mg oral tablet,favorable tolerability and safety
same,AE dizziness,[3]; 4/546 subjects,0.7%
same,AE nausea,[3]; 5/546 subjects,0.9%
same,Serum ALT or AST levels greater than ULN,[3]; 11/546 subjects,2.0%
same,Serious AEs (SAEs),"[3]; n=2, both not dosed before onset",0.4%
same,bilirubin elevations > 2x ULN,"[4]; across Studies 301, 302 and 303",no patients
same,"ALT or AST >5x ULN, number of patients","[4]; pooled 301, 302, 303, AST elevation deemed not drug-related",1
same,"ALT or AST >3x ULN, number of patients",[4]; [5],2
same,"ALT or AST >3x ULN, percent",[4]; [5],(0.1%)
same,"ALT or AST >5x ULN, percent",[4]; [5],(0.06%)
same,"ALT or AST >10x ULN, number of patients",[4]; [5],0
same,"ALT or AST >20x ULN, number of patients",[4]; [5],0
same,"ALT or AST >ULN, number of patients",[4]; [5],48
same,"ALT or AST >ULN, percent",[4]; [5],(2.7%)
